Values of other authors, collected in US20230203322A1, “NON-ABLATIVE MULTI-LAYER COATINGS FOR BOAT PROPELLERS THAT PREVENT WATER-DERIVED DAMAGE, CORROSION, AND DETERIORATION FROM BIOLOGICAL CHEMICAL PROCESSES” (priority 2021, published 2023).

Experiments:
[1] = system: biofouling animal organisms
barnacles = details: copper release

SMILES: [O]=[Zn] [zinc oxide]
- effect on biofouling animal organisms ([1]; by itself): only a weak effect
- synergistic enhancement of the biofouling anti-proliferating effect of copper and its alloys and salts ([1]; used in combination with the copper containing-substance): up to 200 times

SMILES: [Cu] [copper]
- minimal effective rate known to be effective for eradicating barnacles (barnacles): 4 × 10^-6 micrograms per cm^2 per day
